Test results published in US9056067B2, “Pharmaceutical composition for enhancing immunity, and extract of Poria” (Sinphar Pharmaceutical Co., Ltd., priority 2003, dated 2015).

Legend:
spleen cells = experiment: Spleen cell growth (MTT assay) after oral administration; type: in vivo, mice
Experimental: BALB/c male mice, 6-8 weeks old, were used throughout the experiment. The animals were purchased from National Laboratory Animal Center, Taipei, Taiwan. The mice were housed in the Individual Ventilation Cage System, which provided an environment of Specific Pyrogen-Free. The facilities had 12-h day/night rhythm, 24-26° C. and 30-70% humidity in air. Mice were fed autoclaved water and rodent chow, and the bedding was sterilized by autoclave also. The feedstock purchased from animal center of National Taiwan University composed of crude proteins (>23.0%), crude fat (>4.5%), crude fiber (<6.0%), ash (<8.0%), added minerals (<3.0%) and water (<12%). After transport, the mice were allowed to rest for two weeks before the experiments were started.
[…] […] The control group was the mice feeding with an equal volume of saline (0.85% of NaCl). Mice were sacrificed at day five, and both the serum and spleen cells were collected. The sera were subsequently used to measure the concentration of IgG, IgM and IgA. The spleen cells were plated onto a 100 mm diameter culture plate and incubated at 37° C. for three hours. The non-adherent cells containing T-lymphocytes, B-lymphocytes and NK cells were collected and properly diluted as described in each assay.
The dry powder of PCM, PCM-K1, K-2, K-3 and K4 were suspended in sterile water, followed by sonication to break down the large particle. The suspension of fine particles was used to feed the animals.
(§1) The mouse to be sacrificed was cervical dislocated and sterilized with 70% ethanol. The cardiac punctuation was performed first to withdraw the blood. After the haemagglutination, the blood sample was subjected to centrifugation and the serum was collect. For isolation of spleen cells, the peritoneum was opened to remove the spleen. The fresh spleen was transferred to a culture plate containing 10 ml of RPMI-1640 culture medium. The spleen was then ground over a fine mesh to release the spleen cells. The spleen cells suspending in the medium were then removed and transferred to a 50-ml conical centrifuge tube. The tube was subjected to centrifugation at 1300 rpm for 10 min. The supernatant was discarded and the pellet was re-suspended in 1 ml of cold RBC lysing buffer containing EDTA-NH4Cl. The cells were incubated at room temperature for 10 min, followed by washing the cells three times with culture medium by centrifugation. The spleen cells were plated onto a 100 mm diameter culture plate and incubated at 37° C. for three hours. The non-adherent cells containing T-lymphocytes, B-lymphocytes and NK cells were collected and properly diluted as described in each assay.
MTT assay is the method routinely used for estimating the viable cell number and viability of the cultured cells. The basic principle is that the only mitochondria in a viable cells contain biologically activated oxido-reductive enzymes. The enzymes interact with MTT reagents to convert the chemical into a relatively insoluble blue crystal. The crystal is then solubilized in an acidic isopropanol and the absorbence at 570 nm in each well was read using an ELISA reader (EL311, BioTek, VT). Briefly, the spleen cells suspended in a medium containing RPMI 1640 supplemented with 10% fetal bovine serum (FBS), 2 mM L-glutamine, antibiotics and 1 μg/ml concanavalin A (Con A) were cultured in the 96-well flat-bottom plate (5×10^5 cells/100 μl/well) for 5 days. MTT assay was performed at day 3, 4 and 5. MTT tetrazolium (3-(4-5-dimethylthiazol-2-yl)-2,5-diphenyltertrazolium bromide) (5 mg/ml in phosphate-buffered saline) (Sigma Chemical, St. Louis, Mo.) was added to the spleen cells (20 μl MTT per 100 μl cells), and plates were incubated at 37° C. for 4 h. Acid-isopropanol (100 μl of 0.04 NHCL in isopropanol) was added to all wells and mixed completely to dissolve the dark blue crystals. After 20 minutes at room temperature to ensure that all crystals were dissolved, the plates were read on an EIA reader at 570 nm.

IL-10 = IL-10 secretion by Con A-stimulated spleen cells (ELISA) after oral administration; type: in vivo, mice
Experimental: For the drug treatment, the animals were divided into four groups and oral administration with 1 ml of PCM, ranging from 10, 40 to 80 mg/kg/day, for four days. […] The control group was the mice feeding with an equal volume of saline (0.85% of NaCl). Mice were sacrificed at day five, and both the serum and spleen cells were collected. The sera were subsequently used to measure the concentration of IgG, IgM and IgA. The spleen cells were plated onto a 100 mm diameter culture plate and incubated at 37° C. for three hours. The non-adherent cells containing T-lymphocytes, B-lymphocytes and NK cells were collected and properly diluted as described in each assay.
as §1
For the quantitative analysis of IFN-γ and IL-10, the spleen cells (1×10^6 cells/ml) were cultured in a medium containing RPMI 1640 supplemented with 10% fetal bovine serum (FBS), 2 mM L-glutamine, antibiotics and 1 μg/ml concanavalin A (Con A) for 3 days. Con A is one of the polyclonal activators for T lymphocyte. Culture spleen cell supernatants were collected. The IFNγ and IL-10 concentrations were measured using a cytokine ELISA set (Cyto Set ELISA kit) purchased from R&D Systems (MN, USA).
Cyto Set ELISA was performed as follows: A 96-well microtiter plate (Nunc-Immuno Plate, MaxiSorp, Nunc, Denmark) was precoated with capture antibodies at 4° C. overnight. The capture antibody was a rat monoclonal antibody to mouse IL-10. The samples to be tested and standard IL-10 ranged from 500 pg/ml to 15.6 pg/ml were added (100 μl/well). The plate was then incubated at 37° C. for 20 min. At the end of incubation, the plate was washed five times, followed by adding the biotinylated goat anti IL-10 polyclonal antibody. The color was developed by incubating the plate with a HRP-conjugated streptoavidin (Zymed, CA, USA), followed by a substrate solution containing hydrogen peroxide and tetramethylbenzidine (TMB). The reaction continued for 30 min at room temperature, and was stopped by adding 100 μl of 2N of sulfuric acid. The absorbence at 450 nm in each well was read using an ELISA reader (EL311, BioTek, Winooski, Vt.), and the data was analyzed using log-logit model.
TH1-type cytokines, such as interleukin-2 (IL-2), interferon-γ (IFN-γ) induces the cellular immune response. Whereas, TH2-type cytokines, such as interleukin-4 (IL-4), interleukin-5 (IL-5), interleukin-6 (IL-6), stimulates the B lymphocyte-mediated humoral immune response. […] Spleen cells isolated from the mice treated with PCM and its purified components, such as PCM-K1, -K2, -K3 and K4, were cultured for five days in the presence of ConA. The amount of interferon-γ (IFNγ; TH1-type cytokine) and interleukin-10 (IL-10; TH2-type cytokine) secreted by the spleen T lymphocytes was measured (Table 7.1 & Table 7.2). […]

[1] = oral 10 mg/kg/day for four days
[2] = oral 20 mg/kg/day for four days

Row | Compound | Spleen cell growth, absorbance at 570 nm (MTT assay), incubation day 3 (spleen cells; oral 5 mg/kg/day for four days) | Spleen cell growth, absorbance at 570 nm (MTT assay), incubation day 4 (spleen cells; oral 5 mg/kg/day for four days) | Spleen cell growth, absorbance at 570 nm (MTT assay), incubation day 5 (spleen cells; oral 5 mg/kg/day for four days) | Spleen cell growth, absorbance at 570 nm (MTT assay), incubation day 3 (spleen cells; [1]) | Spleen cell growth, absorbance at 570 nm (MTT assay), incubation day 4 (spleen cells; [1]) | Spleen cell growth, absorbance at 570 nm (MTT assay), incubation day 5 (spleen cells; [1]) | Spleen cell growth, absorbance at 570 nm (MTT assay), incubation day 3 (spleen cells; [2]) | Spleen cell growth, absorbance at 570 nm (MTT assay), incubation day 4 (spleen cells; [2]) | Spleen cell growth, absorbance at 570 nm (MTT assay), incubation day 5 (spleen cells; [2]) | IL-10 secretion by spleen cell (IL-10; oral 5 mg/kg/day for four days) | IL-10 secretion by spleen cell (IL-10; [1]) | IL-10 secretion by spleen cell (IL-10; [2])
1 | C=C(CC[C@@H](C(=O)O)[C@H]1[C@H](O)C[C@@]2(C)C3=CC[C@H]4C(C)(C)C(=O)CC[C@]4(C)C3=CC[C@]12C)C(C)C [K3] | 1.154 ± 0.172 | 0.841 ± 0.160 | 0.864 ± 0.194 | 1.020 ± 0.090 | 0.900 ± 0.193 | 0.957 ± 0.200 | 1.103 ± 0.081 | 1.068 ± 0.132 | 0.943 ± 0.159 | 262.09 ± 108.41 pg/mL | 86.48 ± 33.26 pg/mL | 98.74 ± 27.05 pg/mL
2 | C=C(CCC(C(=O)O)C1C(O)CC2(C)C3=CCC4C(C)(CCC(O)C4(C)C)C3=CCC12C)C(C)C (stereo not drawn) [K4] | 0.949 ± 0.101 | 0.981 ± 0.087 | 0.862 ± 0.085 | 1.198 ± 0.101 | 1.273 ± 0.147 | 1.177 ± 0.078 | 1.233 ± 0.040 | 1.263 ± 0.041 | 1.061 ± 0.124 | 128.91 ± 45.46 pg/mL | 197.39 ± 68.73 pg/mL | 155.91 ± 26.16 pg/mL
